This experiment concerns T1, Hno (6-hydroxynicotine oxidase), recombinant His-tagged.
T1 construct: N-terminal His tag (pETDuet-1), E. coli BL21 (DE3); FAD-containing; about 50 kDa on SDS-PAGE
Put plainly: UV-visible spectrophotometry at […] nm (6-hydroxypseudooxynicotine formation). To be noted: 37 °C, pH 9.2, 100 mM glycine-NaOH buffer; O2 as electron acceptor; read-out: apparent K m. Type of experiment: biochemical, Agrobacterium tumefaciens.

Molecules are shown by their SMILES.

Consider `CN1CCC[C@H]1c1ccc(O)nc1` [6-hydroxynicotine], for which the Km was determined as 67 ± 1 µM.
